From patent US20240246950A1, “Anilino-Pyrazole Derivatives, Compositions and Methods Thereof” (Ensem Therapeutics, priority 2022, published 2024)

Assays:
GSK3β = GSK3β (Homo sapiens, UniProt P49841); assay: In vitro kinase TR-FRET assay GSK3β; assay type: biochemical; details: enzyme 0.6 nM, ATP 7.6 μM
Method: (§1) In vitro kinase TR-FRET assays: CDK2/CycA2, CDK2/CycE1, CDK1/cyclinB and GSK3β
(§2) The test compounds were prepared as 10 mM stock solution in 100% DMSO. The stock solution was then serially diluted 3-fold in 100% DMSO to 10 concentrations. 200 nL of each diluted compound solution was transferred to 384-well plate in duplicate. To each well, 5 uL of enzyme and ATP mixture solution containing enzyme CDK2/CycA2, CDK2/CycE1, CDK1/cyclinB, or GSK30 (final concentrations 3 nM, 0.6 nM, 0.3 nM, 0.6 nM, respectively) and ATP (final concentrations 27 μM, 82 μM, 56 μM, 7.6 μM, respectively) in the assay buffer (50 mM HEPES, pH7.5, 10 mM MgCl2, 1 mM DTT, 0.01% BSA, 0.01% Triton X-100). For negative control, 5 uL of assay buffer was added instead. The plate was incubated at room temperature for 10 min. 5 uL of peptide solution containing ULight-4E-BP1 peptide (final concentrations 50 nM) in the assay buffer was subsequently added into each well to initiate the reaction. By incubation at room temperature for 1 hour, 10 uL of 2 nM Eu-anti-phospho-4E BP1 antibody was then added for detection. After one hour incubation at room temperature, all samples were subjected to read the TR-FRET signal on Envision with excitation at 340 nm and emission fluorescence at 615 nm and 665 nm. IC50 values were then calculated by plotting dose-response curves and then using the XLfit application in Excel software.

CDK2/CycA2 = CDK2/CycA2 (Homo sapiens, UniProt P24941); assay: In vitro kinase TR-FRET assay CDK2/CycA2; assay type: biochemical; details: enzyme 3 nM, ATP 27 μM, read-out: CDK2 cyclinA2 activity assay: IC50
Method: as §1, §2

TOV21G = assay: Cell proliferation (CyQUANT) TOV21G; assay type: cell-based; details: Homo sapiens, 168 h, 7 days, read-out: Anti-proliferation assay: IC50 (nM) [Cell Line: TOV21G]
Method: (§3) Cancer cell lines, namely, OVCAR3, TOV21G were seeded onto 96 well cell culture plates at a density of 2500, 1000 or 3000 cells/well, respectively and cultured overnight. Cells treated with test compounds at 3-fold dose titration for 7 days at maximum final DMSO concentration of 0.01%. The CyQUANT® Cell Proliferation Assay, a highly sensitive fluorescence-based method for quantifying cells and assessing cell proliferation and cytotoxicity was employed, following manufacturer's procedure (ThermnoFisher, Cataloge #C35012). Plates were scanned with a laser-based Acumen Cellistra instrument by TTP LabTech at Ex/Em 480/520 nm. % Inhibition is calculated based on DMSO control wells on the same plate (ie, DMSO wells have 100% growth and 0% growth inhibition).

CDK2/CycE1 = CDK2/CycE1 (Homo sapiens, UniProt P24941); assay: In vitro kinase TR-FRET assay CDK2/CycE1; assay type: biochemical; details: enzyme 0.6 nM, ATP 82 μM, read-out: CDK2 cyclinE1 activity assay: IC50
Method: as §1, §2

CDK1/cyclinB = CDK1/cyclinB (Homo sapiens, UniProt P06493); assay: In vitro kinase TR-FRET assay CDK1/cyclinB; assay type: biochemical; details: enzyme 0.3 nM, ATP 56 μM
Method: as §1, §2

OVCAR3 = assay: Cell proliferation (CyQUANT) OVCAR3; assay type: cell-based; details: Homo sapiens, OVCAR-3, 168 h, OVCAR3, 7 days, read-out: Anti-proliferation assay: IC50 (nM) [Cell Line: OVCAR3]
Method: as §3

CDK1/cyclinB, sequence (P06493 whole entry): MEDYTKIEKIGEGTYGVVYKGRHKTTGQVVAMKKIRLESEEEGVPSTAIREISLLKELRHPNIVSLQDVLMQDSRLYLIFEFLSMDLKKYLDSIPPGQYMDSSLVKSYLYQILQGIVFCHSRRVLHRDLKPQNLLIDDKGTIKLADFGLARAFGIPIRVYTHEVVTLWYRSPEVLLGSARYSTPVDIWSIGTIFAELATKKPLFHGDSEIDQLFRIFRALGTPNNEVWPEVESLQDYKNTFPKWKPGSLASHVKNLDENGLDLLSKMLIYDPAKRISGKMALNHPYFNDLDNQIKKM
CDK1/cyclinB, sequence (P14635 whole entry partner): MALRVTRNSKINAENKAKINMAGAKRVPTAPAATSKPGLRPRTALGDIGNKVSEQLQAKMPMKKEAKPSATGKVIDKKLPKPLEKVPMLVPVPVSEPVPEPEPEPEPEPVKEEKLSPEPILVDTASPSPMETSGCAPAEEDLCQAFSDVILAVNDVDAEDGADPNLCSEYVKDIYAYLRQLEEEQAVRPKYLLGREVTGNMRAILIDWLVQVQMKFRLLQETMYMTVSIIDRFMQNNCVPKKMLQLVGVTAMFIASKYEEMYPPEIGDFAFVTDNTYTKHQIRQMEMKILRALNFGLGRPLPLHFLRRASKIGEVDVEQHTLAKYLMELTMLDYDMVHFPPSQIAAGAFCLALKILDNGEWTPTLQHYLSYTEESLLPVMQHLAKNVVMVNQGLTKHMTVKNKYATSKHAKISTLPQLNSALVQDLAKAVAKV
GSK3β, sequence (P49841 whole entry, species assumed): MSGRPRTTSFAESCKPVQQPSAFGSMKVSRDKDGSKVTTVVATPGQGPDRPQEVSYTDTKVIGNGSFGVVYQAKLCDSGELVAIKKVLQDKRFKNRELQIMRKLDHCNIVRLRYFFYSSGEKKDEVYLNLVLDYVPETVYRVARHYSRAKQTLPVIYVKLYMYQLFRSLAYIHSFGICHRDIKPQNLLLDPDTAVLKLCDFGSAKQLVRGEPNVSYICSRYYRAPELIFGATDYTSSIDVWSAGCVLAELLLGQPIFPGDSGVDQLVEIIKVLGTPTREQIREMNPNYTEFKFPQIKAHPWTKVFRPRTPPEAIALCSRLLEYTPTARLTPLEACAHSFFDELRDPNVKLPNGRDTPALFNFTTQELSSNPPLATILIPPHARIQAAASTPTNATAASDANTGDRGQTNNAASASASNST

Row | Structure (SMILES) | IC50 (GSK3β) [nM] | IC50 (CDK2/CycA2) [nM] | IC50 (CDK2/CycE1) [nM] | IC50 (CDK1/cyclinB) [nM] | IC50 (OVCAR3) [nM] | IC50 (TOV21G) [nM]
1 | CC(C)NC(=O)O[C@H]1CC[C@@H](c2cc(Nc3ccc4c(c3)S(=O)(=O)CC4)n[nH]2)CC1 [Example 27, (1s,4s)-4-{5-[(1,1-dioxo-2,3-dihydro-1λ^6-benzo[b]thiophen-6-yl)amino]-2H-pyrazol-3-yl}cyclohexyl (prop-2-ylamino)methanoate] | > 1000 | < 50 | < 50 | 50 to 500 | ≥ 1000 | ≥ 1000
2 | COC1CS(=O)(=O)c2ccc(Nc3cc([C@H]4CC[C@@H](OC(=O)NC(C)C)C4)n[nH]3)cc21 (stereo partly drawn) [Example 15, (1R,3S)-3-{5-[(3-methoxy-1,1-dioxo-2,3-dihydro-1λ^6-benzothiophen-5-yl)amino]-2H-pyrazol-3-yl}cyclopentyl (prop-2-ylamino)methanoate] | 50 to 500 | < 50 | < 50 | 50 to 500 | ≤ 500 | ≥ 1000
3 | CC(C)NC(=O)O[C@@H]1CC[C@H](c2cc(Nc3cccc4c3CS(=O)(=O)CC4O)[nH]n2)C1 (stereo partly drawn) [Example 62, (1R,3S)-3-(5-((4-hydroxy-2,2-dioxidoisothiochroman-8-yl)amino)-1H-pyrazol-3-yl)cyclopentyl isopropylcarbamate] | > 1000 | < 50 | < 50 | 50 to 500 | ≤ 500 | ≥ 1000
4 | CC(C)NC(=O)O[C@@H]1CC[C@H](c2cc(Nc3ccc4c(c3)C(C#N)CC4)n[nH]2)C1 (stereo partly drawn) [Example 31, (1R,3S)-3-{5-[(3-cyano-2,3-dihydro-1H-inden-5-yl)amino]-2H-pyrazol-3-yl}cyclopentyl (prop-2-ylamino)methanoate] | 50 to 500 | < 50 | < 50 | 50 to 500 | ≤ 500 | ≤ 500
5 | CC(C)NC(=O)O[C@@H]1CC[C@H](c2cc(Nc3ccc4c(c3)CCC(=O)N4)[nH]n2)C1 [Example 30, (1R,3S)-3-{5-[(2-oxo-1,2,3,4-tetrahydroquinolin-6-yl)amino]-1H-pyrazol-3-yl}cyclopentyl (prop-2-ylamino)methanoate] | > 1000 | < 50 | < 50 | 50 to 500 | 500 to 1000 | ≥ 1000
6 | CC(C)NC(=O)O[C@@H]1CC[C@H](c2cc(Nc3ccc4c(c3)C(C)(C)CS4(=O)=O)n[nH]2)C1 [Example 21, (1R,3S)-3-{5-[(3,3-dimethyl-1,1-dioxo-2,3-dihydro-1λ^6-benzothiophen-5-yl)amino]-2H-pyrazol-3-yl}cyclopentyl (prop-2-ylamino)methanoate] | 50 to 500 | < 50 | < 50 | 50 to 500 | 500 to 1000 | ≥ 1000
7 | CC(C)NC(=O)O[C@@H]1CC[C@H](c2cc(Nc3ccc4c(c3)CS(=O)(=O)N4)n[nH]2)C1 [Example 45, (1R,3S)-3-{5-[(2,2-dioxo-1,3-dihydro-2λ6-benzo[c][1,2]thiazol-5-yl)amino]-2H-pyrazol-3-yl}cyclopentyl (prop-2-ylamino)methanoate] | > 1000 | < 50 | < 50 | < 50 | ≥ 1000 | ≥ 1000

Now from value to molecule, other results behind:

Row | IC50 (GSK3β) [nM] | IC50 (CDK2/CycA2) [nM] | IC50 (CDK2/CycE1) [nM] | IC50 (CDK1/cyclinB) [nM] | IC50 (OVCAR3) [nM] | Structure (SMILES) | IC50 (TOV21G) [nM]
8 | > 1000 | < 50 | < 50 | 50 to 500 | 500 to 1000 | CC(C)NC(=O)O[C@H]1CC[C@@H](c2cc(Nc3nccc4c3CCS4(=O)=O)n[nH]2)CC1 [Example 69, (1s,4s)-4-{5-[(1,1-dioxo-2,3-dihydro-1λ^6-thieno[3,2-c]pyridin-4-yl)amino]-1H-pyrazol-3-yl}cyclohexyl (prop-2-ylamino)methanoate] | ≥ 1000
9 | > 1000 | < 50 | < 50 | 50 to 500 | ≤ 500 | CC(C)NC(=O)O[C@@H]1CC[C@H](c2cc(Nc3cccc4c3CS(=O)(=O)CC4)n[nH]2)C1 [Example 63, (1R,3S)-3-(3-((2,2-dioxidoisothiochroman-8-yl)amino)-1H-pyrazol-5-yl)cyclopentyl isopropylcarbamate] | ≥ 1000
10 | 50 to 500 | < 50 | < 50 | 50 to 500 | ≤ 500 | CC(C)NC(=O)O[C@@H]1CC[C@H](c2cc(Nc3ccc4c(n3)CCS4(=O)=O)n[nH]2)C1 [Example 55, (1R,3S)-3-(3-((1,1-dioxido-2,3-dihydrothieno[3,2-b]pyridin-5-yl)amino)-1H-pyrazol-5-yl)cyclopentyl isopropylcarbamate] | ≥ 1000
11 | 500 to 1000 | < 50 | < 50 | 50 to 500 | ≤ 500 | CC(C)NC(=O)O[C@@H]1CC[C@H](c2cc(Nc3cccc4c3CCCS4(=O)=O)n[nH]2)C1 [Example 59, (1R,3S)-3-(3-((1,1-dioxidothiochroman-5-yl)amino)-1H-pyrazol-5-yl)cyclopentyl isopropylcarbamate] | 500 to 1000
12 | 50 to 500 | < 50 | < 50 | 50 to 500 | ≤ 500 | Cc1ccc(Nc2cc([C@H]3CC[C@@H](OC(=O)NC(C)C)C3)[nH]n2)c2c1S(=O)(=O)CC2 [Example 65, (1R,3S)-3-(3-((7-methyl-1,1-dioxido-2,3-dihydrobenzo[b]thiophen-4-yl)amino)-1H-pyrazol-5-yl)cyclopentyl isopropylcarbamate] | 500 to 1000
13 | 50 to 500 | < 50 | < 50 | 50 to 500 | ≤ 500 | CC(C)NC(=O)O[C@@H]1CC[C@H](c2cc(Nc3nccc4c3CCS4(=O)=O)n[nH]2)C1 [Example 57, (1R,3S)-3-{5-[(1,1-dioxo-2,3-dihydro-1λ^6-thieno[3,2-c]pyridin-4-yl)amino]-2H-pyrazol-3-yl}cyclopentyl (prop-2-ylamino)methanoate] | 500 to 1000
14 | 50 to 500 | < 50 | < 50 | 50 to 500 | ≤ 500 | CC(C)NC(=O)O[C@@H]1CC[C@H](c2cc(Nc3cccc4c3CNS4(=O)=O)n[nH]2)C1 [Example 46, (1R,3S)-3-(3-((1,1-dioxido-2,3-dihydrobenzo[d]isothiazol-4-yl)amino)-1H-pyrazol-5-yl)cyclopentyl isopropylcarbamate] | 500 to 1000
15 | 50 to 500 | < 50 | < 50 | 50 to 500 | ≤ 500 | CC(C)NC(=O)O[C@@H]1CC[C@H](c2cc(Nc3ccc4c(c3)CCS4(=O)=O)n[nH]2)C1 [Example 9, (1R,3S)-3-(3-((1,1-dioxido-2,3-dihydrobenzo[b]thiophen-5-yl)amino)-1H-pyrazol-5-yl)cyclopentyl isopropylcarbamate] | ≥ 1000
16 | 50 to 500 | < 50 | < 50 | < 50 | ≤ 500 | CC(C)(C)NC(=O)O[C@@H]1CC[C@H](c2cc(Nc3nccc4c3CCS4(=O)=O)n[nH]2)C1 [Example 68, (1R,3S)-3-(3-((1,1-dioxido-2,3-dihydrothieno[3,2-c]pyridin-4-yl)amino)-1H-pyrazol-5-yl)cyclopentyl tert-butylcarbamate] | ≤ 500
17 | > 1000 | < 50 | < 50 | 50 to 500 | ≤ 500 | CC(C)NC(=O)O[C@@H]1CC[C@H](c2cc(Nc3ccc4c(c3F)CCS4(=O)=O)n[nH]2)C1 [Example 60, (1R,3S)-3-(3-((4-fluoro-1,1-dioxido-2,3-dihydrobenzo[b]thiophen-5-yl)amino)-1H-pyrazol-5-yl)cyclopentyl isopropylcarbamate] | ≥ 1000
